Reference: patent US10995091B2 (Proximagen, LLC, priority 2010, dated 2021)
pKi: −log10 of the molar value.

target: T1, Human CXCR4 transfected HEK293 cells (Homo sapiens, UniProt P61073); experiment: CXCR4 functional calcium assay (calcium flux FLIPR, antagonism of SDF1 response); type: cell-based; conditions: CXCR4 functional activity, antagonism of SDF1 (EC50 concentration), read-out: CXCR4 fKi
T1 construct: expressed in transfected cells; host or cells: HEK293
Method in brief: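 Dose-dependent antagonism of the SDF1 response was read by FLIPR as Fluo-4 calcium signal (2 μM dye) in CXCR4-expressing human HEK293 cells, in HBSS with probenecid, BSA and HEPES at pH 7.4 and 37° C. Test compound was given before an EC50-level SDF1 challenge. Curves were then fitted.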

T1 sequence (P61073 whole entry): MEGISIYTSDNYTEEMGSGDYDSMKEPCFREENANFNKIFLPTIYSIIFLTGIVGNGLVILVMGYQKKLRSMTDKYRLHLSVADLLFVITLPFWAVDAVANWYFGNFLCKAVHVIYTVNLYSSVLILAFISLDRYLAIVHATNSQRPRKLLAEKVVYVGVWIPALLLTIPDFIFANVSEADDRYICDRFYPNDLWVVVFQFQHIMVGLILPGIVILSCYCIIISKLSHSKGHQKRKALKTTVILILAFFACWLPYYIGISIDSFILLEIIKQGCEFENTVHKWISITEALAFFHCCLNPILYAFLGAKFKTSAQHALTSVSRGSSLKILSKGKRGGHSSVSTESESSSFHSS

SMILES | pKi
CC(C)(C)c1cnc(-c2cccc(N3CCCN(C4CCN(C(C)(C)C)CC4)CC3)n2)[nH]1 [Example 117, 1-[6-(4-tert-Butyl-1H-imidazol-2-yl)pyridine-2-yl]-4-(1-tert-butylpiperidin-4-yl)-1,4-diazepane] | 6.30 to 7.00
Cc1nc(-c2cccc(N3CCCN(C4CCN(C(C)C)CC4)CC3)n2)[nH]c1C [Example 118, 1-[6-(4,5-Dimethyl-1H-imidazol-2-yl)pyridine-2-yl]-4-[1-(propan-2-yl)piperidin-4-yl]-1,4-diazepane] | 7.00 to 7.70
CCc1[nH]c(-c2cccc(N3CCCN(C4CCN(C(C)C)CC4)CC3)n2)nc1C [Example 119, 1-[6-(5-Ethyl-4-methyl-1H-imidazol-2-yl)pyridine-2-yl]-4-[1-(propan-2-yl)piperidin-4-yl]-1,4-diazepane] | > 7.70
CCc1nc(-c2cccc(N3CCCN(C4CCN(C(C)C)CC4)CC3)n2)[nH]c1CC [Example 120, 1-[6-(4,5-Diethyl-1H-imidazol-2-yl)pyridine-2-yl]-4-[1-(propan-2-yl)piperidin-4-yl]-1,4-diazepane] | 7.00 to 7.70
Cc1nc(-c2cccc(N3CCCN(C4CCN(C(C)C)CC4)CC3)n2)[nH]c1C1CC1 [Example 121, 1-[6-(4-Cyclopropyl-5-methyl-1H-imidazol-2-yl)pyridine-2-yl]-4-[1-(propan-2-yl)piperidin-4-yl]-1,4-diazepane] | > 7.70
CCc1nc(-c2cccc(N3CCCN(C4CCN(C(C)C)CC4)CC3)n2)[nH]c1C1CC1 [Example 122, 1-[6-(4-Cyclopropyl-5-ethyl-1H-imidazol-2-yl)pyridine-2-yl]-4-[1-(propan-2-yl)piperidin-4-yl]-1,4-diazepane] | > 7.70
CCCc1[nH]c(-c2cccc(N3CCCN(C4CCN(C(C)C)CC4)CC3)n2)nc1C [Example 123, 1-[6-(5-Methyl-4-propyl-1H-imidazol-2-yl)pyridine-2-yl]-4-[1-(propan-2-yl)piperidin-4-yl]-1,4-diazepane] | > 7.70
CCc1cn(C)c(-c2cccc(N3CCCN(C4CCN(C(C)C)CC4)CC3)n2)n1 [Example 124, 1-[6-(4-Ethyl-1-methyl-1H-imidazol-2-yl)pyridine-2-yl]-4-[1-(propan-2-yl)piperidin-4-yl]-1,4-diazepane] | 7.00 to 7.70
Cc1ccc(N2CCCN(C3CCN(C(C)C)CC3)CC2)nc1C(=O)NCC1CC1 [Example 125, N-(Cyclopropylmethyl)-3-methyl-6-{4-[1-(propan-2-yl)piperidin-4-yl]-1,4-diazepan-1-yl}pyridine-2-carboxamide] | 6.30 to 7.00
c1ccc2c(c1)CCC2N1CCC(N2CCCN(c3nccs3)CC2)CC1 (centres unmarked) [Example 126, 1-[1-(2,3-Dihydro-1H-inden-1-yl)piperidin-4-yl]-4-(1,3-thiazol-2-yl)-1,4-diazepane] | 6.00 to 6.30
COCC(C)N1CCC(N2CCCN(c3cccc(C(=O)NCC4CC4)n3)CC2)CC1 (centres unmarked) [Example 127, N-(Cyclopropylmethyl)-6-{4-[1-(1-methoxypropan-2-yl)piperidin-4-yl]-1,4-diazepan-1-yl}pyridine-2-carboxamide] | 7.00 to 7.70
O=C(NCC1CC1)c1cccc(N2CCCN(C3CCN(C4CCOC4)CC3)CC2)n1 (centres unmarked) [Example 128, N-(Cyclopropylmethyl)-6-{4-[1-(oxolan-3-yl)piperidin-4-yl]-1,4-diazepan-1-yl}pyridine-2-carboxamide] | 6.30 to 7.00
O=C(NCC1CC1)c1cccc(N2CCCN(C3CCN(Cc4ccccc4)CC3)CC2)n1 [Example 129, 6-[4-(1-Benzylpiperidin-4-yl)-1,4-diazepan-1-yl]-N-(cyclopropylmethyl)pyridine-2-carboxamide] | 6.00 to 6.30
O=C(NCC1CC1)c1cccc(N2CCCN(C3CCN(Cc4ccc(F)cc4)CC3)CC2)n1 [Example 130, N-(Cyclopropylmethyl)-6-(4-{1-[(4-fluorophenyl)methyl]piperidin-4-yl}-1,4-diazepan-1-yl)pyridine-2-carboxamide] | 6.30 to 7.00
Cc1ccccc1CN1CCC(N2CCCN(c3cccc(C(=O)NCC4CC4)n3)CC2)CC1 [Example 131, N-(Cyclopropylmethyl)-6-(4-{1-[(2-methylphenyl)methyl]piperidin-4-yl}-1,4-diazepan-1-yl)pyridine-2-carboxamide] | 6.30 to 7.00
O=C(NCC1CC1)c1cccc(N2CCCN(C3CCN(Cc4ccccc4Cl)CC3)CC2)n1 [Example 132, 6-(4-{1-[(2-Chlorophenyl)methyl]piperidin-4-yl}-1,4-diazepan-1-yl)-N-(cyclopropylmethyl)pyridine-2-carboxamide] | 7.00 to 7.70
COc1ccccc1CN1CCC(N2CCCN(c3cccc(C(=O)NCC4CC4)n3)CC2)CC1 [Example 133, N-(Cyclopropylmethyl)-6-(4-{1-[(2-methoxyphenyl)methyl]piperidin-4-yl}-1,4-diazepan-1-yl)pyridine-2-carboxamide] | 7.00 to 7.70
O=C(NCC1CC1)c1cccc(N2CCCN(C3CCN(Cc4cccc(Cl)c4)CC3)CC2)n1 [Example 134, 6-(4-{1-[(3-Chlorophenyl)methyl]piperidin-4-yl}-1,4-diazepan-1-yl)-N-(cyclopropylmethyl)pyridine-2-carboxamide] | 6.30 to 7.00

SMILES | pKi
O=C(NCC1CC1)c1cccc(N2CCCN(C3CCN(Cc4ccc(F)cc4Cl)CC3)CC2)n1 [Example 135] | > 7.70
NC(=O)c1cccc(N2CCCN(C3CCN(Cc4ccccc4Cl)CC3)CC2)n1 [Example 136, 6-(4-{1-[(2-Chlorophenyl)methyl]piperidin-4-yl}-1,4-diazpan-1-yl)pyridine-2-carboxamide] | 6.30 to 7.00
CCNC(=O)c1cccc(N2CCCN(C3CCN(Cc4ccccc4Cl)CC3)CC2)n1 [Example 137, 6-(4-{1-[(2-Chlorophenyl)methyl]piperidin-4-yl}-1,4-diazepan-1-yl)-N-ethylpyridine-2-carboxamide] | 7.00 to 7.70
CCCCNC(=O)c1cccc(N2CCCN(C3CCN(Cc4ccccc4Cl)CC3)CC2)n1 [Example 138, N-Butyl-6-(4-{1-[(2-chlorophenyl)methyl]piperidin-4-yl}-1,4-diazepan-1-yl)pyridine-2-carboxamide] | 6.00 to 6.30
O=C(NCCCn1ccnc1)c1cccc(N2CCCN(C3CCN(Cc4ccccc4Cl)CC3)CC2)n1 [Example 139, 6-(4-{1-[(2-Chlorophenyl)methyl]piperidin-4-yl}-1,4-diazepan-1-yl)-N-[3-(1H-imidazol-1-yl)propyl]pyridine-2-carboxamide] | 6.30 to 7.00
CC(C)N1CCC(N2CCCN(c3cccc(-c4nc5ccccc5n4C)n3)CC2)CC1 [Example 140, 1-Methyl-2-(6-{4-[1-(propan-2-yl)piperidin-4-yl]-1,4-diazepan-1-yl}pyridin-2-yl)-1H-1,3-benzodiazole] | 6.00 to 6.30
CC(C)N1CCC(N2CCCN(c3cccc(-c4nc5ccccc5[nH]4)n3)CC2)CC1 [Example 141, 2-(6-{4-[1-(Propan-2-yl)piperidin-4-yl]-1,4-diazepan-1-yl}pyridine-2-yl)-1H-1,3-benzodiazole] | > 7.70
CC(C)N1CCC(N2CCCN(c3cccc(-c4nc5cccc(F)c5[nH]4)n3)CC2)CC1 [Example 142, 7-Fluoro-2-(6-{4-[1-(propan-2-yl)piperidin-4-yl]-1,4-diazepan-1-yl}pyridine-2-yl)-1H-1,3-benzodiazole] | 7.00 to 7.70
Cc1cccc2nc(-c3cccc(N4CCCN(C5CCN(C(C)C)CC5)CC4)n3)[nH]c12 [Example 143, 7-Methyl-2-(6-{4-[1-(propan-2-yl)piperidin-4-yl]-1,4-diazepan-1-yl}pyridine-2-yl)-1H-1,3-benzodiazole] | 6.30 to 7.00
CC(C)N1CCC(N2CCCN(c3cccc(-c4nc5ccc(C(F)(F)F)cc5[nH]4)n3)CC2)CC1 [Example 144, 2-(6-{4-[1-(Propan-2-yl)piperidin-4-yl]-1,4-diazepan-1-yl}pyridine-2-yl)-6-(trifluoromethyl)-1H-1,3-benzodiazole] | 6.30 to 7.00
CC(C)N1CCC(N2CCCN(c3cccc(-c4nc5cc(F)c(F)cc5[nH]4)n3)CC2)CC1 [Example 145, 5,6-Difluoro-2-(6-{4-[1-(propan-2-yl)piperidin-4-yl]-1,4-diazepan-1-yl}pyridine-2-yl)-1,3-benzodiazole] | > 7.70
Cc1cc2nc(-c3cccc(N4CCCN(C5CCN(C(C)C)CC5)CC4)n3)[nH]c2cc1C [Example 146, 5,6-Dimethyl-2-(6-{4-[1-(propan-2-yl)piperidin-4-yl]-1,4-diazepan-1-yl}pyridine-2-yl)-1H-1,3-benzodiazole] | 6.30 to 7.00
CC(C)N1CCC(N2CCCN(c3cccc(-c4nc5ccc(F)cc5[nH]4)n3)CC2)CC1 [Example 147, 6-Fluoro-2-(6-{4-[1-(propan-2-yl)piperidin-4-yl]-1,4-diazepan-1-yl}pyridine-2-yl)-1H-1,3-benzodiazole] | 7.00 to 7.70
Cc1ccc2nc(-c3cccc(N4CCCN(C5CCN(C(C)C)CC5)CC4)n3)[nH]c2c1 [Example 148, 6-Methyl-2-(6-{4-[1-(propan-2-yl)piperidin-4-yl]-1,4-diazepan-1-yl}pyridine-2-yl)-1H-1,3-benzodiazole] | 7.00 to 7.70
CC(C)N1CCC(N2CCCN(c3cccc(-c4nc5ccc(C#N)cc5[nH]4)n3)CC2)CC1 [Example 149, 2-(6-{4-[1-(Propan-2-yl)piperidin-4-yl]-1,4-diazepan-1-yl}pyridine-2-yl)-1H-1,3-benzodiazole-6-carbonitrile] | > 7.70
COc1ccc2nc(-c3cccc(N4CCCN(C5CCN(C(C)C)CC5)CC4)n3)[nH]c2c1 [Example 150, 6-Methoxy-2-(6-{4-[1-(propan-2-yl)piperidin-4-yl]-1,4-diazepan-1-yl}pyridine-2-yl)-1H-1,3-benzodiazole] | 7.00 to 7.70
CC(C)N1CCC(N2CCCN(c3cccc(-c4nc5ccccc5s4)n3)CC2)CC1 [Example 151, 2-(6-{4-[1-(Propan-2-yl)piperidin-4-yl]-1,4-diazepan-1-yl}pyridine-2-yl)-1,3-benzothiazole] | 6.30 to 7.00
